# Reference: patent US20040241720A1, “Sodium activated potassium ion channel for therapeutic drug screening” (priority 2003, published 2004)
# Molecular target: T1, rSlo2 channels (Rattus norvegicus, UniProt Q9Z258)
# T1 construct: expressed in transfected cells; host or cells: Xenopus laevis oocytes injected with capped cRNA (pOX vector); inside-out patches
# T1 sequence (Q9Z258 1-1239): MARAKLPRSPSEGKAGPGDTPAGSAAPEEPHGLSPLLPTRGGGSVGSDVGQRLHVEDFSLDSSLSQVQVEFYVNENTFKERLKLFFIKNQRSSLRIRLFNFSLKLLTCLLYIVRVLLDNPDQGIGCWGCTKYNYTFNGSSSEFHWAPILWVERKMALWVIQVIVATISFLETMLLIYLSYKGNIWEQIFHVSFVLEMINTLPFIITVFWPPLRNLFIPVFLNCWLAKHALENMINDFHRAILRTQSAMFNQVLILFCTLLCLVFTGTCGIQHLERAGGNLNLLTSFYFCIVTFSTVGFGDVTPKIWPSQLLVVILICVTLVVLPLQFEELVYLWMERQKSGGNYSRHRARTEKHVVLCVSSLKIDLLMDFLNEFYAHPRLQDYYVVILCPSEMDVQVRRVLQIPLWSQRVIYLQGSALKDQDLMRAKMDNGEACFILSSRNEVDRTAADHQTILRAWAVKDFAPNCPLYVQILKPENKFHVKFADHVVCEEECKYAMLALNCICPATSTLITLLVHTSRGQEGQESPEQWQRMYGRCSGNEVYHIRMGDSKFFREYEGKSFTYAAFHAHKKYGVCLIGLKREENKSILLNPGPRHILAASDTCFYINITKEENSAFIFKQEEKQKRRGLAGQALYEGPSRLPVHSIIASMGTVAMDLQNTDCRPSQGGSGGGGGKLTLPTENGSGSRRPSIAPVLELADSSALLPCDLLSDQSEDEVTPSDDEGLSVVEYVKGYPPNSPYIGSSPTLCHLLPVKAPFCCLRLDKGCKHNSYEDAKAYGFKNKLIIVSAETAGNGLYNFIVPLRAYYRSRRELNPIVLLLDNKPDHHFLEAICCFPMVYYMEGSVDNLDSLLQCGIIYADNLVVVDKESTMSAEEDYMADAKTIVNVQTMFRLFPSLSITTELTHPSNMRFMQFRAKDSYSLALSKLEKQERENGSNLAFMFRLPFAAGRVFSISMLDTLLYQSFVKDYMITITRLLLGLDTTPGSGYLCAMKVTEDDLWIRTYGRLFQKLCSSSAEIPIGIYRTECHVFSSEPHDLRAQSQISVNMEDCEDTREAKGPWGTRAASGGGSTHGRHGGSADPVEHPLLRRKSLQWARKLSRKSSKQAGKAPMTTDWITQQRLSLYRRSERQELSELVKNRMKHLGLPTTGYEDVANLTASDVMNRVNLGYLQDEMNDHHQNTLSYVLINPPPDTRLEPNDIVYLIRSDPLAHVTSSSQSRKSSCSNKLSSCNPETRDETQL
# Assay: Patch clamp of inside-out patches from Xenopus oocytes injected with rSlo2 cRNA
# Type: cell-based
# Description: FIG. 2a depicts current traces from an inside-out macropatch (2-3 MΩ electrode prior to seal formation) in the presence of 50 mM [Na+], FIG. 2a (i) and in the absence of [Na^+]i FIG. 2a (ii). Voltage steps (−70 mV to +70 mV) were applied in 10 mV increments from a holding potential of −70 mV. The calculated potassium equilibrium potential was −78 mV in these experiments. FIG. 2a (iii) The current-voltage relationship of the mean current obtained from 7 macropatches with a holding potential of −80 mV, and voltage steps from −80 to +80 mV in 10 mV increments FIG. 2a (iv) Plot of normalized IKNa obtained upon perfusion of inside-out patches with different Na^+ concentrations as indicated.
# FIG. 2c depicts a current trace of an uninjected oocyte. […] For the macropatch experiments the pipette solution contained (in mM) 145 Na^+-gluconate, 5 KCI, 5 Ca^2+-gluconate, 3 Mg^2+-gluconate, 11 dextrose, 5 HEPES, pH 7.4 with NaOH. The bath solution contained (in mM): 110 KCI, 50 NaCI and 5 HEPES, pH 7.3 with KOH. NaCI was replaced by choline-Cl for the dose-response curve. In single channel experiments, the pipette solution contained (in mM) 80 K^+-gluconate, […], 5 HEPES, 2 MgCI2, pH 7.2 with KOH. The bath solution contained (in mM) 80 KCI, 80 NaCI or 80 cholineCl, 5 HEPES, 5 EGTA, pH 7.2 with KOH.
# FIG. 5a (iii) depicts the current-voltage relationship of the mean current between 700-800 ms. The pipette solution contained (in mM) 80 K^+-gluconate, 80 Na^+-gluconate, 5 HEPES, 2 MgCI2, pH 7.2 with KOH. The bath solution contained (in mM) 80 KCI or 80 K^+-gluconate, 20 NaCI and 60 choline-Cl or 20 Na^+-gluconate and 120 dextrose, 5 HEPES, 5 EGTA, pH 7.2 with KOH. (b) (i) Dose response relationship for [Na+]i at 160 mM [CI]i or 10 mM [CI]i,. (ii) Dose response relationship for [CI]i at 80 mM [Na^+]i or 20 mM [Na^+]i. Currents for the dose response curves were measured and averaged over a 1 second interval at −60 mV and each patch was normalized to the current elicited in 80 mM [Na^+]i, and 160 mM [CI]i. Each experiment was completed within 120 seconds to minimize rundown and was perfused in order of decreasing [Na^+]i or [CI]i.
# The single electrode patch clamp system was first used to analyze inside-out patches, and to investigate the properties of rSlo2 in the Xencpus oocyte expression system by transcribing cRNA and injecting it into oocytes.
# To obtain efficient expression of rhSlo2.2 in Xencpus oocytes, the original rhSlo2.2 construct was cloned into pOX, a special vector optimized for oocyte expression. Capped cRNA was synthesized using the T3 mMessage mMachine kit (Ambion). rhSlo2.2 was linearized using NotI. Reactions were resuspended in nuclease-free water to a final concentration of 1.5 μg/μl. Oocytes were harvested from adult female Xenopus iaevis as described. Defolliculated oocytes were injected with approximately 75 ng of cRNA using a Drummond Nanojector. Injected oocytes were incubated at 19° C. in ND96 medium (in mM): 96 NaCl, 2 KCI, 1.8 CaCl2, 1 MgCl2, 5 HEPES, pH 7.5 with NaOH. Oocytes were analyzed 2-3 days after injection for single channel analysis or 3-6 days after injection for macroscopic current analysis.
# Prior to recording, the vitelline membranes were mechanically removed. The contents of solutions used are described in the figure legends. […] Data were analyzed using pClamp 8.2 (Axon Instruments) and Sigmaplot 5 (Jandel Scientific) or Origin 5.0 (Microcal).
smiles,measurement,setting,value
[Na+] [Na^+],increase of amplitude of macroscopic current in patches,"sodium concentration at cytoplasmic side increased from 10 to 50 mM, inside-out patch",more than ten times
[Ca+2] [Ca^2+i],single channel activity,"about 100 μM Ca^2+i, in the absence of Na^+i (data not shown)",inhibited
same,channel activity,presence of about 80 μM ~200 μM Ca^2+i (data not shown),no effect
Cl [Cl^−],current as fraction of I max,"55 mM Cl^−, 20 mM sodium ions, estimated from dose response plot",approximately 0.18 of I max
same,activation of rSlo2 by Cl^−i,seen only when Na^+i is also present,activated
